The target in test [1] is human FLAP (Homo sapiens (Human), UniProt P20292). Briefly: FLAP binding assay (HTRF format). In short, it runs like this:
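Samples were run in duplicate on each of two plates and the plate results averaged. Read-out is the HTRF signal ratio.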
A general note: Time-resolved FRET reads energy transfer from a long-lived donor to a nearby acceptor.

In test [2] the test system is leukotriene pathway in human whole blood (LTB4). The test can be described thus: Human whole blood assay (LTB4 levels after calcium ionophore A23187 stimulation). It is filed as cell-based. The settings on record: read-out: Human Whole Blood LTB4 IC50 1:1. As to the method: The ability of the compounds of the present invention to treat a FLAP-mediated disease and/or disorder, or associated symptoms or complications thereof, was determined using the following procedures. Binding assay data represent the average value obtained from two different assay plates, with samples run in duplicate on each plate. Human whole blood assay data represent a single replicate on an assay plate using whole blood from at least one healthy donor.
An in vitro cellular assay was performed using human whole blood collected in heparin-containing tubes, which was used to test the ability of compounds to modulate the leukotriene pathway in human whole blood. The blood was diluted 1:1 in RPMI medium, pre-incubated for 15 min at 37° Celsius with test compounds at various concentrations, and then stimulated with calcium ionophore, A23187 (7 μg/mL), for 30 min at 37° Celsius. The samples were then centrifuged and plasma was removed. The plasma was diluted in assay buffer and LTB4 levels were measured using a commercial kit (Enzo Life Sciences). The concentration of each compound that was required for half-maximal inhibition (modulation) of recombinant enzyme activity (IC50) was calculated by a 4-parameter equation using the program GraphPad Prism (GraphPad software).

Setting [3] is: Homo sapiens, human whole blood diluted 1:1, A23187 stimulation, Table 6 (additional runs).
Setting [4] is: Table 6 (additional runs), human FLAP wild type.
Where [5] appears, read: Homo sapiens, Table 6 (additional runs), human whole blood diluted 1:1, A23187 stimulation.
[6] abbreviates: Homo sapiens, human whole blood diluted 1:1 in RPMI, A23187 stimulation, LTB4.

Structures can show the parent of a compound that is named as a salt. Where two headings read alike, the source gives them in different places.

Usually Ki stands for a dissociation constant, usually derived from enzyme kinetics or from competition with a known ligand. The term IC50 denotes the concentration that inhibits the measured activity by half.

Sequence of human FLAP (P20292 whole entry): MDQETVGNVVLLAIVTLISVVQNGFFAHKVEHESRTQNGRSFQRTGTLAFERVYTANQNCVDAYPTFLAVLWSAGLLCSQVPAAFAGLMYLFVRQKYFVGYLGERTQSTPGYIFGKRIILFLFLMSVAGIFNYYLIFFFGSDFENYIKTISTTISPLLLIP

In the case of `CC(O)CN1CCC(S(=O)(=O)c2ncccc2-c2ccc(-c3cnc(N)cn3)c(F)c2)CC1` (racemic) [Example 905, 1-[4-({3-[4-(5-Aminopyrazin-2-yl)-3-fluorophenyl]pyridin-2-yl}sulfonyl)piperidin-1-yl]propan-2-ol], in test [1] (human FLAP wild type, Table 6 (additional runs)), the affinity corresponds to a Ki of 57.9 nM. The concentration for half-maximal inhibition (IC50) in test [2] (setting [3]) was 52.9 nM.

For the compound `C[C@@H](NS(=O)(=O)c1ccccc1-c1ccc(-c2cnc(N)cn2)c(F)c1)C(F)(F)F` [Example 20, (S)-4′-(5-Aminopyrazin-2-yl)-3′-fluoro-N-[(S)-2,2,2-trifluoro-1-methylethyl]biphenyl-2-sulfonamide], in test [1] (setting [4]), the Ki was found to be 0.9 nM. The IC50 in test [2] (Table 6 (additional runs), human whole blood diluted 1:1, A23187 stimulation) turned out to be 8.5 nM.

In test [1] (setting [4]), `CCCS(=O)(=O)Nc1ccccc1-c1ccc(-c2cnc(N)cn2)c(F)c1` [Example 36, N-[4′-(5-Aminopyrazin-2-yl)-3′-fluorobiphenyl-2-yl]propane-1-sulfonamide] had an inhibitory constant (Ki) of 8.1 nM. The IC50 in test [2] (setting [5]) came out at 137 nM.

As to `Nc1cnc(-c2ccc(-c3ccccc3S(=O)(=O)N3CCCCC3)cc2F)cn1` [Example 43, 5-[3-fluoro-2′-(piperidin-1-ylsulfonyl)biphenyl-4-yl]pyrazin-2-amine], affinity in test [1] (setting [4]) was put at a Ki of 3 nM. Also, the IC50 in test [2] (setting [5]) was 38.1 nM.

In test [1] (setting [4]), `Nc1cnc(-c2ccc(-c3ccccc3S(=O)(=O)N3CCNCC3)cc2F)cn1` [Example 46, 5-[3-Fluoro-2′-(piperazin-1-ylsulfonyl)biphenyl-4-yl]pyrazin-2-amine] showed an inhibition constant Ki of 61.5 nM. Also, in test [2] (setting [5]), the 50% inhibitory concentration (IC50) is 177 nM.

As to `CN1CCN(S(=O)(=O)c2ccccc2-c2ccc(-c3cnc(N)cn3)c(F)c2)CC1` [Example 54, 5-{3-Fluoro-2′-[(4-methylpiperazin-1-yl)sulfonyl]biphenyl4-yl}pyrazin-2-amine], the affinity in test [1] (setting [4]), expressed as Ki, was 24.9 nM. In test [2] (setting [5]), the concentration for half-maximal inhibition (IC50) is 41.3 nM.

In the case of `N#CC1CCN(S(=O)(=O)c2ccccc2-c2ccc(-c3cnc(N)cn3)c(F)c2)CC1` [Example 64, 1-{[4′-(5-Aminopyrazin-2-yl)-3′-fluorobiphenyl-2-yl]sulfonyl}piperidine-4-carbonitrile], the inhibition constant (Ki) in test [1] (setting [4]) amounted to 1.9 nM. In test [2] (setting [5]), the IC50 came to 13.1 nM.

Regarding `Nc1cnc(-c2ccc(-c3ccccc3S(=O)(=O)N3CCC(O)CC3)cc2F)cn1` [Example 67, 1-{[4′-(5-Aminopyrazin-2-yl)-3′-fluorobiphenyl-2-yl]sulfonyl}piperidin-4-ol], the affinity in test [1] (setting [4]), expressed as Ki, was 4.2 nM. Moreover, the IC50 in test [2] (setting [5]) was 16.8 nM.

`Nc1cnc(-c2ccc(-c3ccccc3S(=O)(=O)N3CCC(CO)CC3)cc2F)cn1` [Example 68, (1-{[4′-(5-Aminopyrazin-2-yl)-3′-fluorobiphenyl-2-yl]sulfonyl}piperidin-4-yl)methanol] came in with a Ki in test [1] (setting [4]) of 1.1 nM. In addition, in test [2] (setting [5]), the half-inhibitory concentration (IC50) was 10.9 nM.

As to `Nc1cnc(-c2ccc(-c3ccccc3S(=O)(=O)N3CCC[C@@H]3CO)cc2F)cn1` [Example 91, (R)-(1-((4′-(5-aminopyrazin-2-yl)-3′-fluoro-[1,1′-biphenyl]-2-yl)sulfonyl)pyrrolidin-2-yl)methanol], in test [1] (setting [4]), the affinity, expressed as Ki, was 4.7 nM. Besides, the IC50 in test [2] (setting [5]) came to 38.3 nM.

For `Nc1cnc(-c2ccc(-c3ccccc3S(=O)(=O)N3CC[C@@H](N)C3)cc2F)cn1` [Example 92, (R)-5-(2′-((3-aminopyrrolidin-1-yl)sulfonyl)-3-fluoro-[1,1′-biphenyl]-4-yl)pyrazin-2-amine], in test [2] (setting [5]), the IC50 was 309 nM.

The compound `Nc1cnc(-c2ccc(-c3ccccc3S(=O)(=O)NC[C@H](O)c3ccccc3)cc2F)cn1` [Example 117, (R)-4′-(5-aminopyrazin-2-yl)-3′-fluoro-N-(2-hydroxy-2-phenylethyl)-[1,1′-biphenyl]-2-sulfonamide] displayed a Ki in test [1] (setting [4]) of 0.7 nM. Moreover, in test [2] (setting [5]), the IC50 came out at 6.6 nM.

The compound `CC(C)N(CCO)S(=O)(=O)c1ccccc1-c1ccc(-c2cnc(N)cn2)c(F)c1` [Example 141, 4′-(5-Aminopyrazin-2-yl)-3′-fluoro-N-(2-hydroxyethyl)-N-(1-methylethyl)biphenyl-2-sulfonamide] came in with a Ki in test [1] (setting [4]) of 0.7 nM. The IC50 in test [2] (setting [5]) was determined as 3.3 nM.

Turning to `Nc1cnc(-c2ccc(-c3ccccc3S(=O)(=O)N[C@H]3c4ccccc4C[C@@H]3O)cc2F)cn1` [Example 158], in test [1] (setting [4]), the inhibition constant Ki is 0.6 nM. Moreover, the IC50 in test [2] (setting [5]) came out at 1.4 nM.

Regarding `Nc1cnc(-c2ccc(-c3ccccc3S(=O)(=O)N[C@@H]3c4ccccc4C[C@H]3O)cc2F)cn1` [Example 159, 4′-(5-aminopyrazin-2-yl)-3′-fluoro-N-((1R,2R)-2-hydroxy-2,3-dihydro-1H-inden-1-yl)-[1,1′-biphenyl]-2-sulfonamide], the inhibition constant (Ki) in test [1] (setting [4]) is 0.8 nM. In addition, in test [2] (setting [5]), the half-maximal inhibitory concentration (IC50) was 1.3 nM.

For `Nc1cnc(-c2ccc(-c3ccccc3S(=O)(=O)N[C@H]3c4ccccc4C[C@H]3O)cc2F)cn1` [Example 160, 4′-(5-aminopyrazin-2-yl)-3′-fluoro-N-((1S,2R)-2-hydroxy-2,3-dihydro-1H-inden-1-yl)-[1,1′-biphenyl]-2-sulfonamide], the inhibitory constant (Ki) in test [1] (setting [4]) is 0.4 nM; in test [1] (human FLAP wild type, a calculated value of 0.000 indicates Ki less than 1 nM) it was under 1 nM. The IC50 in test [2] (setting [5]) amounted to 5.3 nM.

Turning to `Nc1cnc(-c2ccc(-c3ccccc3S(=O)(=O)C3CCCC3)cc2F)cn1` [Example 195, 5-[2′-(Cyclopentylsulfonyl)-3-fluorobiphenyl-4-yl]pyrazin-2-amine], the Ki in test [1] (setting [4]) turned out to be 2.3 nM. For the same compound, the IC50 in test [2] (setting [5]) was determined as 69 nM.

As for `Nc1cnc(-c2ccc(-c3ccccc3S(=O)(=O)C3CCC3)cc2F)cn1` [Example 196, 5-[2′-(Cyclobutylsulfonyl)-3-fluorobiphenyl-4-yl]pyrazin-2-amine], in test [1] (setting [4]), affinity was put at a Ki of 7.8 nM. Besides, the half-inhibitory concentration (IC50) in test [2] (setting [5]) came out at 96.3 nM.

In test [1] (setting [4]), `CCCCCCS(=O)(=O)c1ccccc1-c1ccc(-c2cnc(N)cn2)c(F)c1` [Example 198, 5-[3-Fluoro-2′-(hexylsulfonyl)biphenyl-4-yl]pyrazin-2-amine] showed an inhibition constant Ki of 72.1 nM. Besides, in test [2] (setting [5]), the half-maximal inhibitory concentration (IC50) turned out to be 819 nM.

Take `CN1CCN(S(=O)(=O)c2cc(C(F)(F)F)ccc2-c2ccc(-c3cnc(N)cn3)c(F)c2)CC1` [Example 212, 5-{3-Fluoro-2′-[(4-methylpiperazin-1-yl)sulfonyl]-4′-(trifluoromethyl)biphenyl-4-yl}pyrazin-2-amine]: in test [1] (setting [4]), the Ki was determined as 0.8 nM. In test [2] (setting [5]), the half-inhibitory concentration (IC50) is 5.3 nM.

Regarding `C[C@H](O)CNS(=O)(=O)c1ccccc1-c1ccc(-c2cnc(N)nc2)c(F)c1` [Example 279, 4′-(2-Aminopyrimidin-5-yl)-3′-fluoro-N-[(2S)-2-hydroxypropyl]biphenyl-2-sulfonamide trifluoroacetic acid salt], the IC50 in test [2] (setting [5]) is 118 nM.

Turning to `C[C@@H](CO)NS(=O)(=O)c1ccccc1-c1ccc(-c2ccc(N)nc2)c(F)c1` [Example 347, (S)-4′-(6-aminopyridin-3-yl)-3′-fluoro-N-(1-hydroxypropan-2-yl)-[1,1′-biphenyl]-2-sulfonamide], the IC50 in test [2] (setting [5]) and in test [2] (setting [6]) was 161 nM each time.

With `CC(C)(C)NS(=O)(=O)c1ccccc1-c1ccc(-c2cnc3[nH]ccc3c2)c(F)c1` [Example 367, N-tert-Butyl-3′-fluoro-4′-(1H-pyrrolo[2,3-b]pyridin-5-yl)biphenyl-2-sulfonamide], the Ki in test [1] (setting [4]) is 0.9 nM. Further, the IC50 in test [2] (setting [5]) is 5.6 nM.

`CCN(CC)S(=O)(=O)c1ccccc1-c1ccc(-c2cnc3[nH]ccc3n2)c(F)c1` [Example 373, N-Diethyl-3′-fluoro-4′-(5H-pyrrolo[2,3-b]pyrazin-2-yl)biphenyl-2-sulfonamide] came in with a Ki in test [1] (setting [4]) of 0.8 nM. Also, the IC50 in test [2] (setting [5]) was 6.6 nM.

In the case of `CC(C)S(=O)(=O)c1ncccc1-c1ccc(-c2cnc(N)cn2)c(F)c1` [Example 395, 5-(2-Fluoro-4-{2-[(1-methylethyl)sulfonyl]pyridin-3-yl}phenyl)pyrazin-2-amine], the IC50 in test [2] (setting [3]) stood at 26.9 nM.

In the case of `Nc1cnc(-c2ccc(-c3ccccc3C(=O)N3CCS(=O)(=O)CC3)cc2F)cn1` [Example 509, 5-{2′-[(1,1-Dioxidathiomorpholin-4-yl)carbonyl]-3-fluorobiphenyl-4-yl}pyrazin-2-amine], the IC50 in test [2] (setting [3]) came to 160 nM.

Consider `Nc1ccnc(Oc2ccccc2-c2ccc(-c3cnc(N)nc3)c(F)c2)n1` [Example 529], for which the IC50 in test [2] (setting [3]) amounted to 79.6 nM.

With `Nc1cnc(-c2ccc(-c3ccccc3S(=O)(=O)NCC3(O)CNC3)cc2F)cn1` [Example 664], the IC50 in test [2] (setting [3]) and in test [2] (setting [6]) was over 1000 nM in each case.

With `C[C@H](NC(=O)c1cc(C(F)(F)F)ccc1-c1ccc(-c2cnc(N)nc2)c(F)c1)C(F)(F)F` [Example 788, 2-[4-(2-Aminopyrimidin-5-yl)-3-fluoro-phenyl]-5-(trifuoromethyl)-N-[(1S)-2,2,2-trifluoro-1-methyl-ethyl]enzamide], the concentration for half-maximal inhibition (IC50) in test [2] (setting [3]) was determined as 1800 nM.

For the compound `CC(C)(C)C(=O)Nc1ncccc1-c1ccc(-c2cnc3[nH]ccc3c2)c(F)c1` [Example 802, N-{3-[3-Fluoro-4-(1H-pyrrolo[2,3-b]pyridin-5-yl)phenyl]pyridin-2-yl}-2,2-dimethylpropanamide], the IC50 in test [2] (setting [3]) is over 1000 nM.

For `Nc1cnc(-c2ccc(-c3ccccc3-c3ccc(N)nn3)cc2F)cn1` [Example 863], the IC50 in test [2] (setting [3]) came out at 140 nM.

These data come from US9745328B2, “Flap modulators” (JANSSEN PHARMACEUTICA NV, priority 2013, dated 2017).
